# Assay results as given in US20250066346A1, “SOLID FORMS OF A BENZTHIAZOLE-PIPERAZINYL-OXAZOLE COMPOUND AND METHODS OF USE THEREOF” (Hepagene Therapeutics (HK) Limited, priority 2022, published 2025).
# Key:
# Assay type in all cases: physicochemical
# [1] = Approximate solubility of Form A in solvents at room temperature (stepwise solvent addition, visual); details: organic solvent or mixture, thermodynamic from solid
# Experimental: Approximately 2 mg of Form A of Compound I was added into a 3-mL glass vial. At room temperature, the solvents in Table 8 were then added stepwise into the vials until the solids were dissolved visually or a total volume of 2 mL was reached.
# [2] = Kinetic solubility in water and bio-relevant media (SGF, FaSSIF, FeSSIF) at 37° C.; set-up: key to FC: form change: Yes: form changed; No: form not changed; details: for pH: filtered supernatant
# Experimental: Agilent 1260 HPLC was utilized and detailed chromatographic conditions are provided in Tables 3 and 4 for purity and solubility test, respectively.
# About 20 mg of free base (form A) HCl salt (form B), and HBr salt (form D) were added to a 5-mL glass vials followed by the addition of 4 mL of the corresponding medium/solvent into each glass vial to form a suspension. The vials were capped and rolled at 37° C. (25 rpm). Samples were removed (1 mL) at 1 h, 4 h, and 24 h and centrifuged (14000 rpm, 2 min, room temperature). The supernatant was filtered through 0.22 μm syringe filter (first few drops of filtrate were discarded) for HPLC solubility and pH tests (Table 15). The residual solids were analyzed by XRPD.
# [3] = Solid state stability (XRPD for physical stability, HPLC purity for chemical stability); details: for Purity/initial purity: HPLC; for Form change: XRPD
# From the text: All the samples were characterized by XRPD for physical stability and HPLC purity for chemical stability evaluation (Table 16).
# [4] = Hygroscopicity by dynamic vapor sorption (DVS) at 25° C.
# Experimental: DVS was measured via a SMS (Surface Measurement Systems) DVS Intrinsic. The relative humidity at 25° C. was calibrated against deliquescence point of LiCl, Mg(NO3)2 and KCl.
smiles,measurement,setting,value
"COc1cc(C(=O)O)cc2sc(N3CCN(Cc4c(-c5c(Cl)cccc5Cl)noc4C4CC4)C[C@H]3C)nc12 [Form A, (R)-2-(4-((5-cyclopropyl-3-(2,6-dichlorophenyl)isoxazol-4-yl)methyl)-2-methylpiperazin-1-yl)-4-methoxybenzo[d]thiazole-6-carboxylic acid]",solubility,[1]; 2-MeTHF,> 40000 µg/mL
same,solubility,[1]; ACN,4800 to 9500 µg/mL
same,solubility,[1]; Acetone,> 42000 µg/mL
same,solubility,[1]; CPME,11500 to 23000 µg/mL
same,solubility,[1]; CPME/n-heptane (2:1),2300 to 4600 µg/mL
same,solubility,[1]; EtOAc,10000 to 20000 µg/mL
same,solubility,[1]; IPAc,3800 to 6300 µg/mL
same,solubility,[1]; MIBK,10000 to 20000 µg/mL
same,solubility,[1]; MIBK/n-heptane (2:1),4200 to 7000 µg/mL
same,solubility,[1]; MeOH,10500 to 21000 µg/mL
same,solubility,[1]; MeOH/H2O (9:1),5300 to 10500 µg/mL
same,solubility,[1]; THF,> 40000 µg/mL
same,solubility,[1]; THF/n-heptane (2:1),> 38000 µg/mL
same,FC: form change,"[2]; FaSSIF, 1 hr",No
same,S: solubility,"[2]; FaSSIF, 1 hr",16 µg/mL
same,pH,"[2]; FaSSIF, 1 hr",6.4
same,FC: form change,"[2]; FaSSIF, 4 hrs",No
same,S: solubility,"[2]; FaSSIF, 4 hrs",17 µg/mL
same,pH,"[2]; FaSSIF, 4 hrs",6.5
same,FC: form change,"[2]; FaSSIF, 24 hrs",No
same,S: solubility,"[2]; FaSSIF, 24 hrs",22 µg/mL
same,pH,"[2]; FaSSIF, 24 hrs",6.4
same,FC: form change,"[2]; FeSSIF, 1 hr",No
same,S: solubility,"[2]; FeSSIF, 1 hr",51 µg/mL
same,pH,"[2]; FeSSIF, 1 hr",5.0
same,FC: form change,"[2]; FeSSIF, 4 hrs",No
same,S: solubility,"[2]; FeSSIF, 4 hrs",56 µg/mL
same,pH,"[2]; FeSSIF, 4 hrs",5.1
same,FC: form change,"[2]; FeSSIF, 24 hrs",No
same,S: solubility,"[2]; FeSSIF, 24 hrs",56 µg/mL
same,pH,"[2]; FeSSIF, 24 hrs",5.1
same,FC: form change,"[2]; H2O, 1 hr",No
same,S: solubility,"[2]; H2O, 1 hr",3 µg/mL
same,pH,"[2]; H2O, 1 hr",6.2
same,FC: form change,"[2]; H2O, 4 hrs",No
same,S: solubility,"[2]; H2O, 4 hrs",2.3 µg/mL
same,pH,"[2]; H2O, 4 hrs",6.3
same,FC: form change,"[2]; H2O, 24 hrs",No
same,S: solubility,"[2]; H2O, 24 hrs",4.6 µg/mL
same,pH,"[2]; H2O, 24 hrs",6.4
same,FC: form change,"[2]; SGF, 1 hr",No
same,S: solubility,"[2]; SGF, 1 hr",20 µg/mL
same,pH,"[2]; SGF, 1 hr",2.1
same,FC: form change,"[2]; SGF, 4 hrs",No
same,S: solubility,"[2]; SGF, 4 hrs",18 µg/mL
same,pH,"[2]; SGF, 4 hrs",1.8
same,FC: form change,"[2]; SGF, 24 hrs",No
same,S: solubility,"[2]; SGF, 24 hrs",17 µg/mL
same,pH,"[2]; SGF, 24 hrs",2.0
same,solubility,"[2]; water, 37 °C, thermodynamic from solid, text summary of Table 15",< 7 µg/mL
same,Purity/initial purity,[3]; 25° C./60% RH/1 week,100.0%
same,Form change,[3]; 25° C./60% RH/1 week,No
same,Purity/initial purity,[3]; 40° C./75% RH/1 week,99.9%
same,Form change,[3]; 40° C./75% RH/1 week,No
same,"solid state stability (overall, in words)","[3]; 80° C./1 day, 25° C./60% RH/1 week, 40° C./75% RH/1 week",good solid state stability
same,Purity/initial purity,[3]; 80° C./1 day,99.8%
same,Form change,[3]; 80° C./1 day,No
same,hygroscopicity (in words),[4]; DVS,non-hygroscopic
same,water uptake,[4]; at 80% RH,0.15%
